From ChEMBL document CHEMBL3352821, “Cyclic Hexapeptides from the Deep South China Sea-Derived Streptomyces scopuliridis SCSIO ZJ46 Active Against Pathogenic Gram-Positive Bacteria” (J Nat Prod, 2014)
In brackets after ≈: the same amount, converted by molar mass. Non-standard residues stand in square brackets, D forms with d. Residues, ends and D or L forms follow the SMILES beside them. aIle = CC[C@@H](C)[C@H](N)C(=O)O

Assays:
Staphylococcus aureus [1] = test: Antimicrobial activity against Staphylococcus aureus ATCC 29213 by serial dilution/CLSI method; assay type: functional
HepG2 = test: Cytotoxicity against human HepG2 cells after 72 hrs by SRB assay; assay type: functional, cell-based; conditions: HepG2, 72 h
Staphylococcus aureus [2] = test: Antimicrobial activity against methicillin-resistant Staphylococcus aureus shhs-A1 clinical isolate by serial dilution/CLSI method; assay type: functional
[3] = tested on: Staphylococcus epidermidis; test: Antimicrobial activity against methicillin-resistant Staphylococcus epidermidis shhs-E1 clinical isolate by serial dilution/CLSI method; assay type: functional
MCF7 = test: Cytotoxicity against human MCF7 cells after 72 hrs by SRB assay; assay type: functional, cell-based; conditions: MCF7, 72 h
SF-268 = test: Cytotoxicity against human SF268 cells after 72 hrs by SRB assay; assay type: functional, cell-based; conditions: SF-268, 72 h
NCI-H460 = test: Cytotoxicity against human NCI-H460 after 72 hrs by SRB assay; assay type: functional, cell-based; conditions: NCI-H460, 72 h
Klebsiella pneumoniae = test: Antimicrobial activity against Klebsiella pneumoniae ATCC 13883 by serial dilution/CLSI method; assay type: functional
Streptococcus pneumoniae = test: Antimicrobial activity against Streptococcus pneumoniae NCTC 7466 by serial dilution/CLSI method; assay type: functional

| Compound | MIC (Staphylococcus aureus [1]) [µg/mL] | IC50 (HepG2) [µM] | MIC (Staphylococcus aureus [2]) [µg/mL] | MIC [3] [µg/mL] | IC50 (MCF7) [µM] | IC50 (SF-268) [µM] | IC50 (NCI-H460) [µM] | MIC (Klebsiella pneumoniae) [µg/mL] | MIC (Streptococcus pneumoniae) [µg/mL] |
| --- | --- | --- | --- | --- | --- | --- | --- | --- | --- |
| CC(C)C[C@@H]1NC(=O)[C@H](Cc2c[nH]c3ccccc23)NC(=O)CNC(=O)[C@H](CC(N)=O)NC(=O)[C@H](C(C)C)NC(=O)[C@@H](CC(C)C)NC1=O | 16 (≈ 23.4 µM) | > 100 | > 128 | 32 (≈ 46.9 µM) | > 100 | > 100 | > 100 | > 128 | 12.5 (≈ 18.3 µM) |
| CC[C@@H](C)[C@@H]1NC(=O)[C@@H](CC(C)C)NC(=O)[C@H](CC(C)C)NC(=O)[C@H](CC(=O)c2ccccc2NC=O)NC(=O)CNC(=O)[C@H](CC(N)=O)NC1=O | > 128 | > 100 | > 128 | > 128 | > 100 | > 100 | > 100 | > 128 | > 100 |
| CC[C@@H](C)[C@@H]1NC(=O)[C@@H](CC(C)C)NC(=O)[C@H](CC(C)C)NC(=O)[C@H](CC(=O)c2ccccc2N)NC(=O)CNC(=O)[C@H](CC(N)=O)NC1=O | > 128 | > 100 | > 128 | > 128 | > 100 | > 100 | > 100 | > 128 | > 100 |
| CC[C@@H](C)[C@@H]1NC(=O)[C@@H](CC(C)C)NC(=O)[C@H](CC(C)C)NC(=O)[C@H](Cc2c[nH]c3ccccc23)NC(=O)CNC(=O)[C@H](CC(N)=O)NC1=O [DESOTAMIDE] (cyclo(GWL[dL][aIle]N)) | 16 (≈ 23 µM) | > 100 | > 128 | 32 (≈ 45.9 µM) | > 100 | > 100 | > 100 | > 128 | 12.5 (≈ 17.9 µM) |
| CN[C@H](CC(C)C)C(=O)N[C@H]1C(=O)N[C@@H](CC(N)=O)C(=O)N[C@H]2C(=O)N[C@H]3C(=O)N[C@H](C(=O)N[C@H](C(=O)O)c4cc(O)cc(O)c4-c4cc3ccc4O)[C@H](O)c3ccc(c(Cl)c3)Oc3cc2cc(c3O[C@@H]2O[C@H](CO)[C@@H](O)[C@H](O)[C@H]2O[C@H]2C[C@](C)(N)[C@H](O)[C@H](C)O2)Oc2ccc(cc2Cl)[C@H]1O [VANCOMYCIN] |  |  |  |  |  |  |  | > 128 | 0.37 (≈ 0.255 µM) |
